# Assay results reported in US12656355B2, “Two phase indicator displacement assay” (The Florida State University Research Foundation, Inc., priority 2022, dated 2026).
# Key:
# Type in all cases: physicochemical
# [1] = Cross-polarized microscopy of CTAB containing octanol droplets exposed to aqueous dye; details: for birefringent phase formation under crossed polarizers: CTAB containing droplet arrays exposed to dye (FIGS. 6A-6B); for anisotropic phase (birefringent ring) formation, single-dye system: 400 uM red dye only or 50 uM blue dye only, CTAB drops 7.5-60 mM, ring at 30 mM CTAB or higher
# Procedure: Also, it can be observed that there is formation of an anisotropic phase in the 30 mM CTAB drops in the red and blue dye and the red dye only systems before the red dye fully partitions into the organic phase of the drop around 5 minutes. After 5 minutes, as the red dye continues to partition into the organic phase, this anisotropic phase seems to disappear. This can be observed by observing the absence of the anisotropic phase at 10 minutes and all later times for the 30 mM CTAB drops in the red and blue dye and the red dye only systems. […] This pattern of anisotropic phase formation before the red dye partitions supports the kinetic barrier mechanism which depends on the formation of some anisotropic phase on the interface of the drops with high CTAB concentration that hinders the red dye from partitioning in and allows the blue dye to partition in at a faster rate resulting in the observed high CTAB concentration blue dye selectivity and the low CTAB concentration red dye selectivity in the Bell, 2020 study.
# Erioglaucine disodium salt (Blue 1) was purchased from Sigma-Aldrich (St. Louis, MO, USA). Allura red AC (Red 40) was obtained from TCI (Tokyo, Japan). For the birefringent ring experiments shown in FIG. 3, 400 uM red 40 dye and 50 uM blue 1 dye were dissolved in D.I. water. For the equilibrium tube experiment, dye concentrations were chosen based on the assumption that one dye molecule can be sequestered for every two CTAB molecules. The dye concentrations are chosen such that once this criterion is met, there will be enough dye left in the aqueous phase to be detected by a spectrophotometer so that the aqueous phase solution will have concentrations of 1700 uM, 850 uM, 425 uM, 213 uM, 106 uM for both red 40 dye and blue 1 dye.
# The different lipid solutions were microarrayed using 0.1-10 μL disposable sterile pipet tips (VWR) directly onto the substrate. Drops were 0.1 uL in volume and only had contact with the bottom glass slide. After tapping the microarray onto the substrate, 0.3 mm thick PDMS was used as a spacer between the substrate and the cover. The two spacers will be fixed 1.8 cm apart onto the substrate. The coverslip will be placed carefully onto two spacers. Microscope slides manufactured by Azer Scientific (Unifrost) will be used as substrates. Microscope cover glasses (25 mm Å˜25 mm) manufactured by VWR will be used as slipcovers. Approximately 130 μL of aqueous solution was added to the right side of the flow cell and moved quickly through the flow cell. Prior to experiments, test samples will be incubated in 1 mL of deionized water to test for stability.
# The blue 1 dye and red 40 dye used wavelengths of 629 nm and 501 nm respectively for absorbance measurements. Microarray samples requiring 30 min or less were imaged with a digital microscope (Dino-Lite Pro2 AD-413T or Dino-Lite Edge AM4115ZT) at 100 Å˜ magnification. For imaging lipid microarrays, a portable backlight stage (Dino-Lite MSBL-ZW1R) was used as a white light source and positioned under the bottom of the slide to illuminate the sample.
# [2] = Surfactant mediated selective dye partitioning octanol/water in tubes (non-equilibrated); details: mixture of red and blue dye in water, 4-48 hours
# Procedure: Herein, detecting selective partitioning into droplets in a microfluidic device was scaled up to millimeter volumes in tubes, as shown in FIGS. 15A-15B and FIGS. 16A-16B. The selective partitioning behavior of the two dyes between the octanol and water phases was studied in test tubes (FIGS. 15A-15B), and dye concentrations quantified optically. First, solutions of CTAB in octanol and both dyes in water were prepared separately. Then both the aqueous and organic solutions were combined into one tube. After some time, one or both dyes partitioned into the organic phase. […] Due to the larger scale of the experiment, it took between 4-48 hours to observe the selectivity, as compared to 1-10 minutes in the microfluidic setup. (Bell, 2020.) A question about the mechanism of this surfactant mediated molecular recognition was then whether one dye is thermodynamically favored to partition into the octanol in the presence of CTAB or whether it is kinetically driven. […]
# Erioglaucine disodium salt (Blue 1) was purchased from Sigma-Aldrich (St. Louis, MO, USA). […] The dye concentrations are chosen such that once this criterion is met, there will be enough dye left in the aqueous phase to be detected by a spectrophotometer so that the aqueous phase solution will have concentrations of 1700 uM, 850 uM, 425 uM, 213 uM, 106 uM for both red 40 dye and blue 1 dye.
# [3] = Equilibrium dye partitioning octanol/water with CTAB (tubes, absorbance of aqueous phase); details: for stoichiometric ratio, CTAB molecules needed to extract each dye molecule: calculated from dye left in the water after extraction, where not all dye was extracted
# Excerpt: To examine the dye partitioning at equilibrium, the two-phase system at various CTAB concentrations, samples were left on a shaker for one week followed by centrifugation and optical characterization of the aqueous phase by absorbance spectroscopy (FIGS. 16A-16B). Tubes containing only the red dye and only blue dye were included in the experiment as well as tubes with the dye mixture. […] CTAB has a net charge of +1 whereas both dye molecules have a net charge of −2. Thus, two positively charged CTAB can effectively balance the negative charge of the dye molecules resulting in a zero net charge for a complex of two CTAB and one dye molecule.
# In order to further study the equilibrium state at high CTAB concentrations, the setup was used to allow for observation of the equilibrated state at high CTAB concentrations with excess dye in the water. Using the previously calculated dye ratios needed for maximum saturation in the organic phase, the dye concentrations were chosen so that it would be impossible for both red and blue dye to fully partition into the organic phase. Tubes with a range of concentration from 3.75 mM to 60 mM CTAB dissolved in octanol and deionized water with blue and red dye concentrations ranging from 106 μM to 1700 μM. By observing which dye is left in the aqueous phase after equilibrium is reached, it can be determined which dye is more thermodynamically favorable in the organic phase at equilibrium. If the mechanism for the blue dye selectivity at high CTAB concentrations is thermodynamic in nature and depends on the formation of micelles in the organic phase, then at high CTAB concentrations the dye remaining in the aqueous phase should be the red dye and at low CTAB concentrations, the dye remaining in the aqueous phase should be the blue dye. However, if the mechanism is kinetic and relies on the formation of an aggregation phase at the interface of the two phases, then at all concentrations of CTAB the dye remaining in the aqueous phase should be the blue dye. […] From this it was concluded that the red dye is thermodynamically favored to partition into the CTAB containing organic phase.
# Erioglaucine disodium salt (Blue 1) was purchased from Sigma-Aldrich (St. Louis, MO, USA). Allura red AC (Red 40) was obtained from TCI (Tokyo, Japan). […] The dye concentrations are chosen such that once this criterion is met, there will be enough dye left in the aqueous phase to be detected by a spectrophotometer so that the aqueous phase solution will have concentrations of 1700 uM, 850 uM, 425 uM, 213 uM, 106 uM for both red 40 dye and blue 1 dye. […]
# The blue 1 dye and red 40 dye used wavelengths of 629 nm and 501 nm respectively for absorbance measurements. […]
# [4] = Partitioning indicator displacement assay (PIDA), CTAB/octanol drops with blue 1 dye indicator
# Excerpt: The organic drops with fully dissolved indicator were exposed to an aqueous phase containing the target analyte. Over time the target analyte displaced the indicator and partitioned into the organic phase. In this experiment, the sensor had various concentrations of CTAB dissolved into the organic phase and used the maximum saturation ratio of blue dye to CTAB (Mechanism paper) to saturate each organic phase solution with the indicator, blue FCF dye. The displacement of blue dye from the organic phase was measured by monitoring optical transmittance using a color camera.
# Five concentrations (60 mM, 30 mM, 15 mM, 7.5 mM, and 3.75 mM) of CTAB in octanol were placed in a tube along with 50 μM of blue dye dissolved in D.I. water, set on a shaker and allowed to equilibrate. An array was made with a sample of each concentration with the blue dye; with 11 drops (replicates) of each concentration and viewed using a DinoLite microscope. Four-hundred μM of aqueous red dye was flowed into the array and a picture was taken before addition of red dye and then every 5 seconds over a 15 minute period. […] Images were analyzed in imageJ, using […] within each replicate and 25 points for background analysis. The replicates were then separated by channel as gray values of the micrographs, and data normalized into absorbance values by subtracting the original dye free data from each replicate. The replicates were averaged per concentration and the data was transferred into percent transmittance using the formula […].
# The organic solute cetyltrimethylammonium bromide (CTAB) was purchased from Sigma-Aldrich (St. Louis, USA). Erioglaucine disodium salt (Blue 1) was purchased from Sigma-Aldrich (St. Louis, MO, USA). 10 mL of 6 mM, 3 mM, 1.5 mM, 0.75 mM, and 0.375 mM blue 1 dye dissolved in deionized water and added to separate tubes containing 2 mL of different concentrations of CTAB in octanol (60 mM, 30 mM, 15 mM, 7.5 mM, and 3.75 mM), set on a shaker and allowed to equilibrate. After equilibrating for one week, the organic layer of each CTAB concentration containing the blue 1 dye was used to make the microarray.
# 50 nL octanol drops containing CTAB and blue 1 dye were placed onto microscope slides manufactured by Azer Scientific (Unifrost) using 0.1-10 μL disposable sterile pipet tips (VWR). A barrier of 0.3 mm PDMS was used as a spacer between the slide and cover slip (25 mm×25 mm) manufactured by VWR. Approximately 135 μL of analyte solution was added to the flow cell and moved quickly through the flow cell.
# Samples were imaged with a digital microscope (Dino-Lite Pro2 AD-413T or Dino-Lite Edge AM4115ZT) at 100 Å˜ magnification. For imaging PIDA assays, a portable backlight stage (Dino-Lite MSBL-ZW1R) was used as a white light source and positioned under the bottom of the slide to illuminate the sample. Images for measurement of the transmittance were captured in brightfield mode. The time dependent partitioning was recorded at one frame per 20 second intervals.
# Images were analyzed in imageJ, using 10 points within each replicate and 25 points for background analysis. The replicates were then separated into different RGB channels as gray values of the micrographs. The data was then normalized into transmittance values by subtracting the original dye free data from each replicate. The data was then converted into absorbance using the formula […]. Using the absorbance data, and the measured initial blue dye concentrations, the data was converted to blue dye concentration and then the replicates were averaged per concentration and the standard deviation was calculated. Graphs showing the separate channels of the micrographs, with the red color (b) or blue color (e) that was viewable with the DinoLite, and how they differed with concentration (B and E). The graphs are made from each of the 5 concentrations with their associated normalized absorbance values. […]
# [5] = 3.75 mM CTAB drops, blue 1 dye indicator, red 40 dye analyte, from TRF fitting
compound,measurement,setting,value
O=S(=O)([O-])c1ccc(N=Nc2c(O)ccc3cc(S(=O)(=O)[O-])ccc23)cc1.[Na+].[Na+] [Sunset Yellow FCF],birefringent phase formation under crossed polarizers,[1],not
"CCN(Cc1cccc(S(=O)(=O)[O-])c1)c1ccc(C(=C2C=CC(=[N+](CC)Cc3cccc(S(=O)(=O)[O-])c3)C=C2)c2ccccc2S(=O)(=O)[O-])cc1.[Na+].[Na+] [blue dye, Erioglaucine disodium salt]",selective partitioning into the octanol phase,[2]; high CTAB concentrations (30 mM and 60 mM) in octanol,selectively partitioned into the octanol phase
same,"anisotropic phase (birefringent ring) formation, single-dye system",[1]; disodium salt,no anisotropic phase formation
same,"anisotropic phase (birefringent ring) formation, single-dye system","[1]; listed as Blue Dye, disodium salt",doesn't cause a ring
same,"stoichiometric ratio, CTAB molecules needed to extract each dye molecule",[3],approximately 2
"COc1cc(S(=O)(=O)[O-])c(C)cc1N=Nc1c(O)ccc2cc(S(=O)(=O)[O-])ccc12.[Na+].[Na+] [red dye, Allura red AC]",selective partitioning into the octanol phase,[2]; CTAB 0.5 mM and 1 mM in octanol,selectively partitioned into the octanol phase
same,"anisotropic phase (birefringent ring) formation, single-dye system",[1],formation of an anisotropic structure
same,"anisotropic phase (birefringent ring) formation, single-dye system",[1]; listed as Allura Red Dye,causes a ring
same,birefringent phase formation under crossed polarizers,[1],birefringent phase forming
same,partitioning at equilibrium with excess dye in the water,"[3]; 3.75 mM to 60 mM CTAB in octanol, blue and red dye 106 μM to 1700 μM, all concentrations tested",preferentially partition into the organic phase
same,"stoichiometric ratio, CTAB molecules needed to extract each dye molecule",[3],approximately 2
same,partitioning at equilibrium,"[3]; low CTAB concentration (<15 mM), shaker one week",partitioned into the octanol phase
[Cl-].[Na+] [sodium chloride],blue dye indicator displaced,"[4]; 50 mM analyte, after 10 minutes, 7.5 mM CTAB containing octanol drops (FIG. 7B)",~48.3%
"CCCCCCCCCCCCCCCC[N+](C)(C)C.[Br-] [CTAB, cetyltrimethylammonium bromide]",delay in onset time of displacement,[4]; [5],no delay in onset time
same,rate of displacement (decay constant),[4]; [5],0.48 s⁻¹
same,rate of displacement (decay constant),"[4]; 7.5 mM CTAB drops, blue 1 dye indicator, red 40 dye analyte, from TRF fitting",0.42 s⁻¹
same,delayed onset time of displacement,"[4]; 30 mM CTAB drops, blue 1 dye indicator, red 40 dye analyte, from TRF fitting",7.76 min
same,displacement rate,"[4]; 30 mM CTAB, blue 1 dye indicator, red 40 dye analyte, from TRF fitting",0.07 s⁻¹
